# Data: BigSolDB 2.1
# Conditions: in n-hexane
SMILES,solubility (mole fraction) (293.15 K),solubility (mole fraction) (298.15 K),solubility (mole fraction) (303.15 K),solubility (mole fraction) (308.15 K),solubility (mole fraction) (313.15 K)
Fc1ccc(N=C2[Se]CC3CCCN2C3)cc1 (stereo not given),0.00115,0.00121,0.00128,0.00134,0.00143
Cc1ccc(N=C2[Se]CC3CCCN2C3)cc1Cl (stereo not given),0.000536,0.000551,0.000567,0.000581,0.000595
CC(C)c1ccc(N=C2[Se]CC3CCCN2C3)cc1 (stereo not given),0.000481,0.00056,0.000643,0.000725,0.000819
